Test results from ChEMBL document CHEMBL4765284, “Optimization of 5-substituted thiazolyl ureas and 6-substituted imidazopyridines as potential HIV-1 latency reversing agents” (Eur J Med Chem, 2020).

Legend:
[1] = tested on: Cytomegalovirus; experiment: Antiviral activity against CMV infected in FlpIn-HEK293 cells assessed as click beetle green reporter driven gene expression incubated for 72 hrs by luciferase based cellular assay; assay type: functional, organism-based; details: HEK293, 72 h
[2] = tested on: Human immunodeficiency virus 1; experiment: Antiviral activity against HIV-1 infected in FlpIn-HEK293 cells assessed as activation of long terminal repeat driven gene expression incubated for 72 hrs by luciferase based cellular assay; assay type: functional, organism-based; details: Human immunodeficiency virus 1, HEK293, 72 h

EC50 [1] | EC50 [2] | SMILES
21 µM | 10 µM | Cc1cnc(NC(=O)N2CCCN(c3ccc(C)c(Cl)c3)CC2)s1
6.5 µM | 8.9 µM | Cc1cnc(NC(=O)N2CCN(c3ccc(C)c(Cl)c3)C(C)C2)s1 (stereo not given)
16 µM | 12 µM | Cc1cnc(NC(=O)N2CC(N(C)c3ccc(C)c(Cl)c3)C2)s1
1.9 µM | 0.53 µM | Cc1ccc(OC2CN(C(=O)Nc3ncc(Cl)s3)C2)cc1Cl
> 40 µM | > 40 µM | Cc1cnc(NC(=O)N2CC3(C2)CN(c2ccc(C)c(Cl)c2)C3)s1
 | > 40 µM | Cc1cc(OC2CCCN(C(=O)Nc3ncc(Cl)s3)C2)ccc1Cl (stereo not given)
20 µM | > 40 µM | Cc1cnc(NC(=O)N2CCC(Nc3ccc(Cl)c(C)c3)CC2)s1
33 µM | > 40 µM | Cc1cnc(NC(=O)N2CCC(N(C)c3ccc(Cl)c(C)c3)C2)s1 (stereo not given)
1.9 µM | 0.22 µM | Cc1cnc(NC(=O)N2CC(Oc3ccc(C)c(Cl)c3)C2)s1
40 µM | > 40 µM | Cc1cnc(NC(=O)N2CCC(Oc3ccc(Cl)c(C)c3)CC2)s1
2.3 µM | 0.6 µM | Cc1cnc(NC(=O)N2CCN(c3ccc(Cl)c(C)c3)CC2)s1
 | > 40 µM | Cc1cnc(NC(=O)N2CCC[C@H](Nc3ccc(Cl)c(C)c3)C2)s1
> 40 µM | > 40 µM | Cc1cnc(NC(=O)N2CCC[C@@H](Nc3ccc(Cl)c(C)c3)C2)s1
5.2 µM | 2 µM | Cc1cnc(NC(=O)N2CCC(Oc3ccc(Cl)c(C)c3)C2)s1 (stereo not given)
2.5 µM | 1.5 µM | Cc1cc(OC2CCN(C(=O)Nc3ncc(Cl)s3)C2)ccc1Cl (stereo not given)
20 µM | 20 µM | Cc1cc(OC2CCN(C(=O)Nc3ncc(Cl)s3)CC2)ccc1Cl
2.8 µM | 0.93 µM | Cc1ccc(N(C)C2CN(C(=O)Nc3ncc(Cl)s3)C2)cc1Cl
3 µM | 0.67 µM | Cc1cnc(NC(=O)N2CC(Nc3ccc(C)c(Cl)c3)C2)s1
5.2 µM | 5 µM | Cc1cnc(NC(=O)N2CCN(c3ccc(C)c(Cl)c3)CC2C)s1 (stereo not given)
14 µM | 6.2 µM | Cc1cnc(NC(=O)N2CCC(Nc3ccc(Cl)c(C)c3)C2)s1 (stereo not given)
5 µM | 0.47 µM | Cc1cnc(NC(=O)N2CCN(c3ccc(C)c(Cl)c3)CC2)s1

Second part, the compound before the results:

SMILES | EC50 [1] | EC50 [2]
Cc1cnc2[nH]c(CCCOc3ccc(C)c(Cl)c3)nc2c1 | 24 µM | 12 µM
Cc1cc(NC2CCN(C(=O)Nc3ncc(Cl)s3)CC2)ccc1Cl | > 40 µM | > 40 µM
Cc1cnc(NC(=O)C2CCN(c3ccc(C)c(Cl)c3)CC2)s1 | > 40 µM | 2.5 µM
Cc1ccc(OCCCc2nc3ncc(Cl)cc3s2)cc1Cl | > 40 µM | > 40 µM
Cc1cc(N2CCN(C(=O)Nc3ncc(Cl)s3)CC2)ccc1Cl | 0.89 µM | 0.4 µM
Cc1ccc(N2CCC(C(=O)Nc3ncc(Cl)s3)CC2)cc1Cl | > 40 µM | 2 µM
Cc1cnc(NC(=O)N2CCN(c3cnc(C#N)c(C)c3)CC2)s1 | 21 µM | 10 µM
Cc1cnc2[nH]c(N3CCN(c4cnc(Cl)c(Cl)c4)CC3)nc2c1 | 0.13 µM | 1.3 µM
O=C(Nc1ncc(Cl)s1)N1CCN(c2ccc(Cl)c(Cl)c2)CC1 | 0.8 µM | 0.31 µM
Cc1cc(N2CCN(C(=O)Nc3ncc(Cl)s3)CC2)cnc1C#N | 0.83 µM | 0.21 µM
Cc1cc(N2CCN(C(=O)Nc3ncc(C#N)s3)CC2)ccc1Cl | 2.3 µM | 0.71 µM
Cc1cnc(NC(=O)N2CCN(c3ccccc3)CC2)s1 | 5 µM | 1.7 µM
Cc1cnc(NC(=O)N2CCN(c3ccc(Cl)c(Cl)c3)CC2)s1 | 0.49 µM | 0.93 µM
Cc1cnc(NC(=O)N2CCN(c3cc(C(F)(F)F)c(Cl)cn3)CC2)s1 | > 40 µM | 0.73 µM
Cc1cnc(NC(=O)N2CCN(c3cncnc3)CC2)s1 | > 40 µM | > 40 µM
Cc1ccc(N2CCN(C(=O)Nc3nccs3)CC2)cc1Cl | 4 µM | 3.4 µM
Cc1cc(N(C)C2CCN(C(=O)Nc3ncc(Cl)s3)C2)ccc1Cl (stereo not given) | 20 µM | 11 µM
Cc1cc(N2CCN(C(=O)Nc3ncc(Cl)s3)CC2)ncc1C#N | 1 µM | 0.46 µM
Cc1ccc(N2CCN(C(=O)Nc3ncc(C(F)(F)F)s3)CC2)cc1Cl | > 2 µM | 1.3 µM
Cc1cnc2[nH]c(CCCOc3cnc(Cl)c(Cl)c3)nc2c1 | 34 µM | 21 µM
Cc1ccc(N2CCCN(C(=O)Nc3ncc(Cl)s3)CC2)cc1Cl | 19 µM | 22 µM
Cc1ccc(N2CCN(C(=O)Nc3ncc(Cl)s3)CC2C)cc1Cl (stereo not given) | 3.7 µM | 0.82 µM

SMILES | EC50 [1] | EC50 [2]
Cc1cnc(NC(=O)N2CCN(c3cnc(Cl)c(Cl)c3)CC2)s1 | 0.57 µM | 0.3 µM
O=C(Nc1ncc(Cl)s1)N1CCN(c2ccc(Cl)cc2)CC1 | 1.64 µM | 0.35 µM
N#Cc1cnc(NC(=O)N2CCN(c3ccc(Cl)cc3)CC2)s1 | 3.6 µM | 1.5 µM
Cc1ccc(N2CCN(C(=O)Nc3ncc(C#N)s3)CC2)cc1Cl | 2.3 µM | 0.24 µM
Cc1cnc(NC(=O)N2CCN(c3ccc(Cl)cc3)CC2)s1 | 5.5 µM | 2.7 µM
Cc1ccc(N2CCN(c3nc4cc(Br)cnc4[nH]3)CC2)cc1Cl | > 0.3 µM | 0.32 µM
Cc1ccc(N2CC3(CN(C(=O)Nc4ncc(Cl)s4)C3)C2)cc1Cl | 19 µM | 16 µM
Cc1cnc2[nH]c(CCCOc3ccc(Cl)c(Cl)c3)nc2c1 | 28 µM | 14 µM
Cc1cc(N[C@@H]2CCCN(C(=O)Nc3ncc(Cl)s3)C2)ccc1Cl | > 40 µM | > 40 µM
O=C(Nc1ncc(Cl)s1)N1CCN(c2cncnc2)CC1 | 12 µM | 8.9 µM
O=C(Nc1ncc(Cl)s1)N1CCN(c2cc(C(F)(F)F)c(Cl)cn2)CC1 | 1.8 µM | 0.92 µM
Cc1cc(N(C)C2CCN(C(=O)Nc3ncc(Cl)s3)CC2)ccc1Cl | > 40 µM | > 40 µM
Cc1cnc2sc(CCCOc3ccc(C)c(Cl)c3)nc2c1 | > 40 µM | > 40 µM
Clc1cnc2[nH]c(N3CCN(c4ccc(Cl)c(Cl)c4)CC3)nc2c1 | 2.6 µM | 0.98 µM
Cc1cnc2[nH]c(N3CCN(c4ccc(Cl)c(Cl)c4)CC3)nc2c1 | 0.82 µM | 0.75 µM
Cc1cc(N[C@H]2CCCN(C(=O)Nc3ncc(Cl)s3)C2)ccc1Cl |  | > 40 µM
Cc1ccc(N2CCN(C(=O)Nc3ncc(Cl)s3)C(C)C2)cc1Cl (stereo not given) | 1.5 µM | 1.3 µM
Clc1cnc2[nH]c(CCCOc3ccc(Cl)c(Cl)c3)nc2c1 | 1.2 µM | 3.3 µM
Cc1cnc(NC(=O)N2CCN(c3cccc(C#N)c3)CC2)s1 | 1.8 µM | 0.23 µM
Cc1cnc(NC(=O)N2CCN(c3cc(C)c(C#N)cn3)CC2)s1 | > 40 µM | 4.2 µM
O=C(Nc1ncc(C(F)(F)F)s1)N1CCN(c2cnc(Cl)c(Cl)c2)CC1 | 0.48 µM | 0.7 µM
